Patent publication US12103945B2, “Crystalline form of vascular leakage blocker compound” (Curacle Co., Ltd., priority 2020, dated 2024)

Experiments:
Format in all cases: physicochemical
[1] = Dynamic vapor sorption (DVS); details: for Mass change (%) Desorption / Mass change (%) Sorption / Mass change (%) Hysteresis: 25° C.
Description: Around 10 mg of samples were used to test its moisture sorption/desorption profiles.
• Temperature: 25° C. • Equilibrium: dm/dt: 0.01%/min • Relative Humidity (RH) measurement stepscope: 0%˜95%˜0% RH • Relative Humidity (RH) measurement step: 5% RH • Samples: 10-20 mg • Hygroscopicity Classification • Hygroscopicity: Water Sorption Criterion • Deliquescent: Sufficient water is absorbed to form a liquid. • Very hygroscopic: W %≥15% • Hygroscopic: W %≥2% • Slightly hygroscopic: W %≥0.2% • Non-hygroscopic: W %<0.2% • 25±1° C., 80±2% RH

[2] = Accelerated stability test (HPLC purity); details: for Purity (%): 40 ± 2° C. & 75 ± 5% RH
Description: • Column: Agilent Zorbax Rx C8, 4.6 mm×250 mm, 5.0 μm • Moving phase: 85% acetonitrile • Flow rate: 1.0 mL/rain • Wavelength: 205 nm • Injection volume: 10 λL • Column temperature: 30° C. • Diluent: 100% acetonitrile
In order to confirm the stability of the novel crystalline form according to the present invention, the stability of the crystalline form I prepared in Example 1 was evaluated using a liquid chromatography method under the analysis conditions of <Experimental Methods>6. High performance liquid chromatography (HFLC). The results of the accelerated stability test from 1 month to 6 months in the conditions of 40±2° C. & 75±5 RH are shown in Table 15 below.

[3] = Thermal gravimetric analysis (TGA); details: heating from room temperature to 120° C.
Description: Samples of compounds (4˜6 mg) were weighed into the pan, and heated under nitrogen purge.
• Ramp rate: 20° C./min over the range 30° C.˜300° C. • Nitrogen purge: 50 mL/min • Samples: About 5 mg

Q: For `COC(=O)CCC/C=C(\C)[C@H]1CC[C@H]2[C@@H]3CC=C4C[C@@H](O[C@@H]5C=C[C@H](OC(C)=O)[C@@H](COC(C)=O)O5)CC[C@]4(C)[C@H]3CC[C@]12C` [crystalline form I, (E)-methyl 6-((3S,8S,9S,10R,13S,14S,17R)-3-(((2S,5S,6R)-5-acetoxy-6-(acetoxymethyl)-5,6-dihydro-2H-pyran-2-yl)oxy)-10,13-dimethyl-2,3,4,7,8,9,10,11,12,13,14,15,16,17-tetradecahydro-1H-cyclopenta[a]phenanthrene-17-yl)hept-5-enoate], which “Mass change (%) Desorption” value ([1]; Target RH 0.0%) is on record?
A: −0.1124%

Q: And the “Mass change (%) Sorption” value ([1]; Target RH 0.0%)?
A: 0.0000%

Q: And the “Mass change (%) Desorption” value ([1]; Target RH 5.0%)?
A: −0.1004%

Q: And the “Mass change (%) Hysteresis” value ([1]; Target RH 5.0%)?
A: −0.1074%

Q: What about the “Mass change (%) Sorption” value ([1]; Target RH 5.0%) of the same molecule?
A: 0.0070%

Q: And the “Mass change (%) Desorption” value ([1]; Target RH 10.0%)?
A: −0.0904%

Q: And the “Mass change (%) Hysteresis” value ([1]; Target RH 10.0%)?
A: −0.1034%

Q: What about the “Mass change (%) Sorption” value ([1]; Target RH 10.0%) of the same molecule?
A: 0.0131%

Q: And the “Mass change (%) Desorption” value ([1]; Target RH 15.0%)?
A: −0.0773%

Q: And the “Mass change (%) Hysteresis” value ([1]; Target RH 15.0%)?
A: −0.0964%

Q: And the “Mass change (%) Sorption” value ([1]; Target RH 15.0%)?
A: 0.0191%

Q: What about the “Mass change (%) Desorption” value ([1]; Target RH 20.0%) of the same molecule?
A: −0.0673%

Q: And the “Mass change (%) Hysteresis” value ([1]; Target RH 20.0%)?
A: −0.0906%

Q: What about the “Mass change (%) Sorption” value ([1]; Target RH 20.0%) of the same molecule?
A: 0.0231%

Q: What about the “Mass change (%) Desorption” value ([1]; Target RH 25.0%) of the same molecule?
A: −0.0492%

Q: And the “Mass change (%) Hysteresis” value ([1]; Target RH 25.0%)?
A: −0.0803%

Q: What about the “Mass change (%) Sorption” value ([1]; Target RH 25.0%) of the same molecule?
A: 0.0311%

Q: What about the “Mass change (%) Desorption” value ([1]; Target RH 30.0%) of the same molecule?
A: −0.0402%

Q: What about the “Mass change (%) Hysteresis” value ([1]; Target RH 30.0%) of the same molecule?
A: −0.0723%

Q: What about the “Mass change (%) Sorption” value ([1]; Target RH 30.0%) of the same molecule?
A: 0.0321%

Q: What about the “Mass change (%) Desorption” value ([1]; Target RH 35.0%) of the same molecule?
A: −0.0261%

Q: What about the “Mass change (%) Hysteresis” value ([1]; Target RH 35.0%) of the same molecule?
A: −0.0592%

Q: And the “Mass change (%) Sorption” value ([1]; Target RH 35.0%)?
A: 0.0331%

Q: What about the “Mass change (%) Desorption” value ([1]; Target RH 40.0%) of the same molecule?
A: −0.0131%

Q: What about the “Mass change (%) Hysteresis” value ([1]; Target RH 40.0%) of the same molecule?
A: −0.0582%

Q: And the “Mass change (%) Sorption” value ([1]; Target RH 40.0%)?
A: 0.0452%

Q: What about the “Mass change (%) Desorption” value ([1]; Target RH 45.0%) of the same molecule?
A: 0.0000%

Q: And the “Mass change (%) Hysteresis” value ([1]; Target RH 45.0%)?
A: −0.0512%

Q: And the “Mass change (%) Sorption” value ([1]; Target RH 45.0%)?
A: 0.0512%

Q: What about the “Mass change (%) Desorption” value ([1]; Target RH 50.0%) of the same molecule?
A: 0.0141%

Q: And the “Mass change (%) Hysteresis” value ([1]; Target RH 50.0%)?
A: −0.0462%

Q: And the “Mass change (%) Sorption” value ([1]; Target RH 50.0%)?
A: 0.0602%

Q: What about the “Mass change (%) Desorption” value ([1]; Target RH 55.0%) of the same molecule?
A: 0.0261%

Q: And the “Mass change (%) Hysteresis” value ([1]; Target RH 55.0%)?
A: −0.0381%

Q: What about the “Mass change (%) Sorption” value ([1]; Target RH 55.0%) of the same molecule?
A: 0.0642%

Q: And the “Mass change (%) Desorption” value ([1]; Target RH 60.0%)?
A: 0.0392%

Q: And the “Mass change (%) Hysteresis” value ([1]; Target RH 60.0%)?
A: −0.0351%

Q: And the “Mass change (%) Sorption” value ([1]; Target RH 60.0%)?
A: 0.0743%

Q: What about the “Mass change (%) Desorption” value ([1]; Target RH 65.0%) of the same molecule?
A: 0.0522%

Q: And the “Mass change (%) Hysteresis” value ([1]; Target RH 65.0%)?
A: −0.0291%

Q: And the “Mass change (%) Sorption” value ([1]; Target RH 65.0%)?
A: 0.0813%

Q: What about the “Mass change (%) Desorption” value ([1]; Target RH 70.0%) of the same molecule?
A: 0.0663%

Q: And the “Mass change (%) Hysteresis” value ([1]; Target RH 70.0%)?
A: −0.0231%

Q: What about the “Mass change (%) Sorption” value ([1]; Target RH 70.0%) of the same molecule?
A: 0.0893%

Q: What about the “Mass change (%) Desorption” value ([1]; Target RH 75.0%) of the same molecule?
A: 0.0823%

Q: And the “Mass change (%) Hysteresis” value ([1]; Target RH 75.0%)?
A: −0.0191%

Q: What about the “Mass change (%) Sorption” value ([1]; Target RH 75.0%) of the same molecule?
A: 0.1014%

Q: What about the “Mass change (%) Desorption” value ([1]; Target RH 80.0%) of the same molecule?
A: 0.0964%

Q: And the “Mass change (%) Hysteresis” value ([1]; Target RH 80.0%)?
A: −0.0131%

Q: What about the “Mass change (%) Sorption” value ([1]; Target RH 80.0%) of the same molecule?
A: 0.1094%

Q: And the “Mass change (%) Desorption” value ([1]; Target RH 85.0%)?
A: 0.1114%

Q: What about the “Mass change (%) Hysteresis” value ([1]; Target RH 85.0%) of the same molecule?
A: −0.0080%

Q: What about the “Mass change (%) Sorption” value ([1]; Target RH 85.0%) of the same molecule?
A: 0.1195%

Q: And the “Mass change (%) Desorption” value ([1]; Target RH 90.0%)?
A: 0.1325%

Q: What about the “Mass change (%) Hysteresis” value ([1]; Target RH 90.0%) of the same molecule?
A: −0.0010%

Q: What about the “Mass change (%) Sorption” value ([1]; Target RH 90.0%) of the same molecule?
A: 0.1335%

Q: And the “Mass change (%) Desorption” value ([1]; Target RH 95.0%)?
A: 0.1436%

Q: And the “Mass change (%) Sorption” value ([1]; Target RH 95.0%)?
A: 0.1436%

Q: And the Hygroscopicity classification ([1]; 25±1° C., 80±2% RH)?
A: non-hygroscopic

Q: And the water sorption ([1]; at 80% RH)?
A: 0.11%

Q: And the “Purity (%)” value ([2]; storage time 1 month)?
A: 99.8%

Q: What about the “Purity (%)” value ([2]; storage time 3 months) of the same molecule?
A: 99.8%

Q: And the “Purity (%)” value ([2]; storage time 6 months)?
A: 99.8%

Q: What about the “Purity (%)” value ([2]; storage time Initial) of the same molecule?
A: 99.8%

Q: And the “Accelerated stability (result in words)” value ([2]; 40±2° C. & 75±5 RH, 1 month to 6 months)?
A: stably maintained for up to 6 months without affecting the purity

Q: What about the “mass loss (TGA)” value [3] of the same molecule?
A: 0.078%
